According to US9243019B2 (priority 2013, dated 2016):
Like-named read-outs stand apart in the source and are kept apart here.

Assay type: physicochemical
[1] = Table 3, accelerated for 0 month, hydroxysafflor yellow A per CN102675379A purity 89.9%, sodium salt purity 98.6%
[2] = Table 3, accelerated for 1 month, hydroxysafflor yellow A per CN102675379A purity 89.9%, sodium salt purity 98.6%
[3] = Table 3, accelerated for 2 months, hydroxysafflor yellow A per CN102675379A purity 89.9%, sodium salt purity 98.6%
[4] = Table 3, accelerated for 3 months, hydroxysafflor yellow A per CN102675379A purity 89.9%, sodium salt purity 98.6%
[5] = Table 4, accelerated for 0 month, hydroxysafflor yellow A by acidizing purity 99.2%, sodium salt purity 99.2%
[6] = Table 4, accelerated for 2 months, hydroxysafflor yellow A by acidizing purity 99.2%, sodium salt purity 99.2%
[7] = Table 4, accelerated for 3 months, hydroxysafflor yellow A by acidizing purity 99.2%, sodium salt purity 99.2%

O=C(/C=C/c1ccc(O)cc1)C1=C(O)C(O)(C2OC(CO)C(O)C(O)C2O)C(O)=C(C2OC(CO)C(O)C(O)C2O)C1=O (stereo not drawn) [Hydroxysafflor yellow A, hydroxysafflor yellow A]
Content (counting Hydroxyl A) [1]: 89.8% | Total impurity [1]: 10.1% | Content (counting Hydroxyl A) [2]: 84.7% | Total impurity [2]: 14.9% | Content (counting Hydroxyl A) [3]: 79.2% | Total impurity [3]: 20.8% | Content (counting Hydroxyl A) [4]: 71.2% | Total impurity [4]: 28.6% | Content (counting Hydroxyl A) [5]: 99.1% | Total impurity [5]: 0.8% | Total impurity (Table 4, accelerated for 1 month, hydroxysafflor yellow A by acidizing purity 99.2%, sodium salt purity 99.2%): 5.9% | Content (counting Hydroxyl A) [6]: 89.2% | Total impurity [6]: 10.7% | Content (counting Hydroxyl A) [7]: 81.3% | Total impurity [7]: 18.6%
